Measured values from publication PMC9415646, “Improving Aqueous Solubility and In Vitro Pharmacokinetic Properties of the 3-Nitroimidazo[1,2-a]pyridine Antileishmanial Pharmacophore” (Pharmaceuticals, 2022).
Several values for one entry are separate records, joined by “and”; a condition that tells them apart may be missing. Equal entries are not always repeated. Where two headings read alike, the source gives them in different places.

What was measured:
[1] = tested on: T. b. brucei BSF trypomastigotes; assay: Antitrypanosomal evaluation on T. b. brucei BSF trypomastigotes (Alamar Blue); assay type: cell-based; conditions: Trypanosoma brucei, trypomastigote blood stream form
Description: The effects of the tested compounds on the growth of T. b. brucei were assessed by Alamar Blue® assay described by Räz et al. T. b. brucei AnTat 1.9 (IMTA, Antwerpen, Belgium) was cultured in MEM with Earle’s salts, supplemented according to the protocol of Baltz et al. with the following modifications: 0.5 mM mercaptoethanol (Sigma Aldrich®, France), 1.5 mM L-cysteine (Sigma Aldrich®), 0.05 mM bathocuproïne sulfate (Sigma Aldrich®) and 20% heat-inactivated horse serum (Gibco®, France), at 37 °C and 5% CO2. They were incubated at an average density of 2000 parasites/100 µL in sterile 96-wells plates (Fisher®, France) with various concentrations of compounds dissolved in DMSO, in duplicate. Appropriate controls suramin, treated with sterile water, and fexinidazole, treated with DMSO on sterile water (reference drugs purchased from Sigma Aldrich, France and Fluorochem, UK) were added to each set of experiments. After a 69 h incubation period at 37 °C, 10 µL of the viability marker Alamar Blue® (Fisher, France) were then added to each well, and the plates were incubated for 5 h. The plates were read in a ENSPIRE microplate reader (PerkinElmer, Waltham, MA, USA) using an excitation wavelength of 530 nm and an emission wavelength of 590 nm. […] EC50 were calculated by nonlinear regression analysis processed on dose-response curves, using GraphPad Prism software (USA). EC50 values were calculated from three separate experiments.

[2] = biological target: T1, Albumin from human plasma (Homo sapiens, UniProt P02768); assay: Plasma protein (albumin) binding; assay type: in vitro ADME
T1 construct: from tissue; host or cells: plasma
Description: Plasma doped with the tested compound was incubated at 37 °C in triplicate in one of the compartments of the insert, the other compartment containing a phosphate buffer solution at pH 7.2. After stirring for 4 h at 300 rpm, a 25 μL aliquot of each compartment was taken and diluted; the dilution solution was adapted so as to obtain an identical matrix for all the compartments after dilution. Parallel, reprocessing of a plasma doped but not incubated was used to assess recovery. The LC-MS used for this study was a Waters® Acquity I-Class/Xevo TQD, equipped with a Waters® Acquity BEH C18 column, 50 × 2.1 mm, […]. The mobile phases were (A) ammonium acetate 10 mM and (B) acetonitrile with 0.1% formic acid. The injection volume was 1 µL and the flow rate 600 µL/min. Chromatographic analysis, total duration of 4 min, was performed along the following gradient: 0 < t < 0.2 min, 2% (B); 0.2 < t < 2 min, linear increase to 98% (B); 2 < t < 2.5 min, 98% (B); 2.5 < t < 2.6 min, linear decrease to 2% (B); 2.6 < t < 4 min, 2% (B). Carbamazepine, oxazepam, warfarin and diclofenac were used as reference drugs and propranolol as internal standard. The unbound fraction (fu) was calculated according to the following formula: fu=APlasma, 4h−APBS,4h/APlasma, 4h×100 . The percentage of recovery was calculated according to the following formula: % Recovery=(VPBS×APBS,4h)+(VPlasma×APlasma,4h)/(VPlasma×APlasma,0h) where A is the ratio of the area under peak of the studied molecule and the area under peak of the internal standard (propranolol 200 nM). V is the volume of solution present in the compartments (VPBS = 350 µL and Vplasma = 200 µL).

HepG2 cell line = tested on: HepG2 cell line; set-up: method as in PMID 24080103, PMID 30655943; conditions: previously identified hit compounds; cited from earlier work
[3] = tested on: L. infantum axenic amastigotes; set-up: method as in PMID 24080103, PMID 30655943; conditions: previously identified hit compounds; cited from earlier work
THP1 cell line = tested on: THP1 cell line; set-up: method as in PMID 24080103, PMID 30655943; conditions: previously identified hit compounds; cited from earlier work
[4] = tested on: T. b. brucei BSF trypomastigotes; set-up: method as in PMID 30655943; conditions: previously evaluated hit compounds; cited from earlier work

T1 sequence (P02768 25-609): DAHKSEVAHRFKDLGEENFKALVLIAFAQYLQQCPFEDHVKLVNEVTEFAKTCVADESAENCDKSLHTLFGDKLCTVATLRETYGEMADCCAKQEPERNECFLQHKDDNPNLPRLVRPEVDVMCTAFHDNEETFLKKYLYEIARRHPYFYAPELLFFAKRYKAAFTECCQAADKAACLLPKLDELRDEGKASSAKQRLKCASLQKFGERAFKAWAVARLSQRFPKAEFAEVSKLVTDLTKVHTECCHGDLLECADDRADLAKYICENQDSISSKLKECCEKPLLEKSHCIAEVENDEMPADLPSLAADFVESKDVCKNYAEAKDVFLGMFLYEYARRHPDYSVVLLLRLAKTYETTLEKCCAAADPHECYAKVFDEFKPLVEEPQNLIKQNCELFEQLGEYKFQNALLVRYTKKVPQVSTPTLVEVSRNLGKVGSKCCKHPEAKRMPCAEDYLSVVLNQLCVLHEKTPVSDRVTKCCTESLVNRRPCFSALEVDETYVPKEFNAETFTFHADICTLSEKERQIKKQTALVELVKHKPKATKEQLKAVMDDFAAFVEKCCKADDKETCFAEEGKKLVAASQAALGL

Row | Structure (SMILES) | EC50 [1] [µM] | Albumin Binding [2] | other results
1 | O=[N+]([O-])c1c(CS(=O)(=O)c2ccc(O)cc2)nc2c(Sc3ccc(Cl)cc3)cc(Cl)cn12 [Compound 3a, 4-{[(6-Chloro-8-[(4-Chlorophenyl)thio]-3-Nitroimidazo[1,2-a]pyridin-2-yl)methyl]sulfonyl}phenol] | 0.78 ± 0.05 | – | –
2 | O=[N+]([O-])c1c(CS(=O)(=O)c2ccc(F)cc2)nc2c(Sc3ccc(Cl)cc3)cc(Cl)cn12 [Compound 3c, 6-Chloro-8-[(4-Chlorophenyl)thio]-2-[(4-Fluorophenylsulfonyl)methyl]-3-Nitroimidazo[1,2-a]pyridine] | 0.57 ± 0.02 | – | –
3 | O=[N+]([O-])c1c(CS(=O)(=O)c2ccc(C(F)(F)F)cc2)nc2c(Sc3ccc(Cl)cc3)cc(Cl)cn12 [Compound 3d, 6-Chloro-8-[(4-Chlorophenyl)thio]-3-Nitro-2-[(4-Trifluoromethylphenylsulfonyl)methyl]imidazo[1,2-a]pyridine] | 0.89 ± 0.07 | – | –
4 | O=[N+]([O-])c1c(CS(=O)(=O)CCC(F)(F)F)nc2c(Sc3ccc(Cl)cc3)cc(Cl)cn12 [Compound 3i, 6-Chloro-8-[(4-Chlorophenyl)thio]-3-Nitro-2-[(3,3,3-Trifluoropropylsulfonyl)methyl]imidazo[1,2-a]pyridine] | – | 99.8% and 99.76% | –
5 | O=[N+]([O-])c1c(CS(=O)(=O)CCC(F)(F)F)nc2c(-c3ccncc3)cc(Cl)cn12 [Compound 7, 6-Chloro-3-Nitro-8-(Pyridin-4-yl)-2-[(3,3,3-Trifluoropropylsulfonyl)methyl]imidazo[1,2-a]pyridine] | – | 88.6% and 88.65% | –
6 | CSc1ccc(OCc2ncc([N+](=O)[O-])n2C)cc1 [Fexinidazole, reference compound] | 1.4 ± 0.5 | – | –
7 | O=[N+]([O-])c1c(CS(=O)(=O)c2ccccc2)nc2c(Br)cc(Cl)cn12 [Hit A, 8-Bromo-6-chloro-3-nitro-2-(phenylsulfonylmethyl)imidazo[1,2-a]pyridine, reference compound] | – | 96.50% | CC50 (HepG2 cell line): > 15.6 µM; EC50 [3]: 16.4 ± 1.3 µM; CC50 (THP1 cell line): > 100 µM; EC50 [4]: 1.4 ± 0.4 µM
8 | O=[N+]([O-])c1c(CS(=O)(=O)c2ccccc2)nc2c(Sc3ccc(Cl)cc3)cc(Cl)cn12 [Hit B, reference compound] | – | 99.95% | CC50 (HepG2 cell line): > 100 µM; EC50 [3]: 1.7 ± 0.3 µM; CC50 (THP1 cell line): > 62.5 µM; EC50 [4]: 0.95 ± 0.05 µM
